In patent publication US9447084B2, “Antiparisitic and pesticidal isoxazoline compounds” (MERIAL LIMITED, priority 2013, dated 2016):

System: Ctenocephalides felis
Test: Efficacy of compounds against fleas following ingestion (membrane feeding on treated bovine blood)
Assay type: in vivo
Conditions: 10 adult Ctenocephalides felis feeding on treated bovine blood; assessment at 72 hours after application vs untreated controls
Experimental: A cylindrical test container was filled with 10 adult Ctenocephalides felis. A cylindrical well was closed on one end with a self-sealing flexible film and placed on top of the test container in such a position that the fleas could pierce the film and feed on the contents of the cylinder. The test compound solution was then pipetted into bovine blood and added to the well. The container part with the Ctenocephalides felis was held at 20-22° C. and 40-60% relative humidity while the well part containing the treated blood was held at 37° C. and 40-60% relative humidity. Assessment was performed at 72 hours after application in comparison with untreated controls. […] In this regard, the efficacy of the compounds of the invention having at least one carbonyl group in Ring D against fleas was compared with the efficacy of corresponding compounds that are not substituted with a carbonyl group in Ring D using the method of Example 19.

Compound | EC50 [µg/mL]
CCN1CCN(C(=O)c2ccc(C3=NOC(c4cc(Cl)cc(Cl)c4)(C(F)(F)F)C3)cc2C)C1=O (stereo not drawn) [Compound 54] | ≤ 10
Cc1cc(C2=NOC(c3cc(Cl)cc(Cl)c3)(C(F)(F)F)C2)ccc1C(=O)NN1CCN(CC(F)(F)F)C1=O (stereo not drawn) [Compound 67, 4-[5-(3,5-dichlorophenyl)-5-(trifluoromethyl)-4,5-dihydro-1,2-oxazol-3-yl]-2-methyl-N-[2-oxo-3-(2,2,2-trifluoroethyl)imidazolidin-1-yl]benzamide] | ≤ 1
Cc1cc(C2=NOC(c3cc(Cl)cc(C(F)(F)F)c3)(C(F)(F)F)C2)ccc1C(=O)NN1CCCN(CC(F)(F)F)C1=O (stereo not drawn) [Compound 70] | ≤ 1
Cc1cc(C2=NOC(c3cc(Cl)cc(C(F)(F)F)c3)(C(F)(F)F)C2)ccc1C(=O)N1CC(=O)N(CC(F)(F)F)C1 (stereo not drawn) [Compound 71, 1-[(4-[5-[3-chloro-5-(trifluoromethyl)phenyl]-5-(trifluoromethyl)-4,5-dihydro-1,2-oxazol-3-yl]-2-methylphenyl)carbonyl]-3-(2,2,2-trifluoroethyl)imidazolidin-4-one] | ≤ 0.1
Cc1cc(C2=NOC(c3cc(Cl)cc(C(F)(F)F)c3)(C(F)(F)F)C2)ccc1C(=O)N1CC(=O)N(CCC(F)(F)F)C1 (stereo not drawn) [Compound 80, 1-[(4-[5-[3-chloro-5-(trifluoromethyl)phenyl]-5-(trifluoromethyl)-4,5-dihydro-1,2-oxazol-3-yl]-2-methylphenyl)carbonyl]-3-(3,3,3-trifluoropropyl)imidazolidin-4-one] | ≤ 0.1
O=C(NN1CCCN(CC(F)(F)F)C1=O)c1ccc(C2=NOC(c3cc(C(F)(F)F)cc(C(F)(F)F)c3)(C(F)(F)F)C2)cc1C(F)(F)F (stereo not drawn) [Compound 90, 4-[5-[3,5-bis(trifluoromethyl)phenyl]-5-(trifluoromethyl)-4,5-dihydro-1,2-oxazol-3-yl]-N-[2-oxo-3-(2,2,2-trifluoroethyl)-1,3-diazinan-1-yl]-2-(trifluoromethyl)benzamide] | ≤ 1
O=C(NN1CCCN(CC(F)(F)F)C1=O)c1ccc(C2=NOC(c3cc(Cl)cc(Cl)c3)(C(F)(F)F)C2)cc1C(F)(F)F (stereo not drawn) [Compound 91, 4-[5-(3,5-dichlorophenyl)-5-(trifluoromethyl)-4,5-dihydro-1,2-oxazol-3-yl]-N-[2-oxo-3-(2,2,2-trifluoroethyl)-1,3-diazinan-1-yl]-2-(trifluoromethyl)benzamide] | ≤ 1
O=C(c1ccc(C2=NOC(c3cc(Cl)cc(Cl)c3)(C(F)(F)F)C2)cc1C(F)(F)F)N1CC(=O)N(CC(F)(F)F)C(=O)C1 (stereo not drawn) [Compound 92, 4-([4-[5-(3,5-dichlorophenyl)-5-(trifluoromethyl)-4,5-dihydro-1,2-oxazol-3-yl]-2-(trifluoromethyl)phenyl]carbonyl)-1-(2,2,2-trifluoroethyl)piperazine-2,6-dione] | ≤ 10
O=C1CN(C(=O)c2ccc(C3=NOC(c4cc(Cl)cc(Cl)c4)(C(F)(F)F)C3)cc2C(F)(F)F)CN1CC(F)(F)F (stereo not drawn) [Compound 93, 1-([4-[5-(3,5-dichlorophenyl)-5-(trifluoromethyl)-4,5-dihydro-1,2-oxazol-3-yl]-2-(trifluoromethyl)phenyl]carbonyl)-3-(2,2,2-trifluoroethyl)imidazolidin-4-one] | ≤ 1
CCCN1C(=O)CN(C(=O)c2ccc(C3=NOC(c4cc(Cl)cc(C(F)(F)F)c4)(C(F)(F)F)C3)cc2C(F)(F)F)CC1=O (stereo not drawn) [Compound 95, 4-[(4-[5-[3-chloro-5-(trifluoromethyl)phenyl]-5-(trifluoromethyl)-4,5-dihydro-1,2-oxazol-3-yl]-2-(trifluoromethyl)phenyl)carbonyl]-1-propylpiperazine-2,6-dione] | ≤ 10
O=C1CN(C(=O)c2ccc(C3=NOC(c4cc(Cl)cc(C(F)(F)F)c4)(C(F)(F)F)C3)cc2C(F)(F)F)CN1CC(F)(F)F (stereo not drawn) [Compound 96, 1-[(4-[5-[3-chloro-5-(trifluoromethyl)phenyl]-5-(trifluoromethyl)-4,5-dihydro-1,2-oxazol-3-yl]-2-(trifluoromethyl)phenyl)carbonyl]-3-(2,2,2-trifluoroethyl)imidazolidin-4-one] | ≤ 1
O=C(NN1CCCN(CC(F)(F)F)C1=O)c1ccc(C2=NOC(c3cc(Cl)cc(C(F)(F)F)c3)(C(F)(F)F)C2)cc1C(F)(F)F (stereo not drawn) [Compound 97, 4-[5-[3-chloro-5-(trifluoromethyl)phenyl]-5-(trifluoromethyl)-4,5-dihydro-1,2-oxazol-3-yl]-N-[2-oxo-3-(2,2,2-trifluoroethyl)-1,3-diazinan-1-yl]-2-(trifluoromethyl)benzamide] | ≤ 1
O=C1CN(C(=O)c2ccc(C3=NOC(c4cc(Cl)cc(C(F)(F)F)c4)(C(F)(F)F)C3)cc2C(F)(F)F)CN1CCC(F)(F)F (stereo not drawn) [Compound 98, 1-[(4-[5-[3-chloro-5-(trifluoromethyl)phenyl]-5-(trifluoromethyl)-4,5-dihydro-1,2-oxazol-3-yl]-2-(trifluoromethyl)phenyl)carbonyl]-3-(3,3,3-trifluoropropyl)imidazolidin-4-one] | ≤ 1
O=C1CN(C(=O)c2ccc(C3=NOC(c4cc(Cl)cc(C(F)(F)F)c4)(C(F)(F)F)C3)cc2CC(F)(F)F)CN1CCC(F)(F)F (stereo not drawn) [Compound 99, 1-[(4-[5-[3-chloro-5-(trifluoromethyl)phenyl]-5-(trifluoromethyl)-4,5-dihydro-1,2-oxazol-3-yl]-2-(2,2,2-trifluoroethyl)phenyl)carbonyl]-3-(3,3,3-trifluoropropyl)imidazolidin-4-one] | ≤ 1
Cc1cc(C2=NOC(c3cc(Cl)cc(C(F)(F)F)c3)(C(F)(F)F)C2)ccc1C(=O)N1CCN(CCC(F)(F)F)C1 (stereo not drawn) [Compound 100] | ≤ 10
O=C1CN(C(=O)c2ccc(C3=NOC(c4cc(Cl)cc(C(F)(F)F)c4)(C(F)(F)F)C3)c3ccccc23)CN1CCC(F)(F)F (stereo not drawn) [Compound 112, 1-[(4-[5-[3-chloro-5-(trifluoromethyl)phenyl]-5-(trifluoromethyl)-4,5-dihydro-1,2-oxazol-3-yl]naphthalen-1-yl)carbonyl]-3-(3,3,3-trifluoropropyl)imidazolidin-4-one] | ≤ 0.1
Cc1cc(C2=NOC(c3cc(Cl)cc(C(F)(F)F)c3)(C(F)(F)F)C2)ccc1C(=O)N1CC(=O)N(CS(C)(=O)=O)C1 (stereo not drawn) [Compound 114, 1-[(4-[5-[3-Chloro-5-(trifluoromethyl)phenyl]-5-(trifluoromethyl)-4,5-dihydro-1,2-oxazol-3-yl]-2-methylphenyl)carbonyl]-3-(methanesulfonylmethyl)imidazolidin-4-one] | ≤ 10
Cc1cc(C2=NOC(c3cc(Cl)c(F)c(Cl)c3)(C(F)(F)F)C2)ccc1C(=O)N1CC(=O)N(CCC(F)(F)F)C1 (stereo not drawn) [Compound 115, 1-([4-[5-(3,5-dichloro-4-fluorophenyl)-5-(trifluoromethyl)-4,5-dihydro-1,2-oxazol-3-yl]-2-methylphenyl]carbonyl)-3-(3,3,3-trifluoropropyl)imidazolidin-4-one] | ≤ 0.1

Same assay, conditions: efficacy against fleas, method of Example 19; compounds with vs without carbonyl group in Ring D

Compound | EC50 (ppm)
Cc1cc(C2=NOC(c3cc(Cl)cc(Cl)c3)(C(F)(F)F)C2)ccc1C(=O)N1CC(=O)N(CC(F)(F)F)C(=O)C1 (stereo not drawn) | <0.1 ppm
Cc1cc(C2=NOC(c3cc(Cl)cc(Cl)c3)(C(F)(F)F)C2)ccc1C(=O)N1CC(=O)NC(=O)C1 (stereo not drawn) | <0.1 ppm
Cc1cc(C2=NOC(c3cc(Cl)cc(C(F)(F)F)c3)(C(F)(F)F)C2)ccc1C(=O)N1CC(=O)N(CCC(F)(F)F)C1 (stereo not drawn) [drawing 155] | <0.1 ppm
Cc1cc(C2=NOC(c3cc(Cl)cc(C(F)(F)F)c3)(C(F)(F)F)C2)ccc1C(=O)N1CCN(CCC(F)(F)F)C1 (stereo not drawn) [drawing 156, reference compound] | 1-10 ppm
Cc1cc(C2=NOC(c3cc(Cl)cc(Cl)c3)(C(F)(F)F)C2)ccc1C(=O)N1CCN(CC(F)(F)F)CC1 (stereo not drawn) [reference compound] | 10-20 ppm
Cc1cc(C2=NOC(c3cc(Cl)cc(Cl)c3)(C(F)(F)F)C2)ccc1C(=O)N1CCNCC1 (stereo not drawn) [reference compound] | 1-10 ppm
